From patent US9012420B2, “Aptamer for chymase, and use thereof” (Ribomic Inc., priority 2009, dated 2015)
Oligonucleotides are written 5' to 3', each unit as a sugar letter and its base; * is a phosphorothioate linkage, no mark a phosphodiester; rarer units and linkages stand in square brackets, end groups in braces. Plain capitals give the bases only. r = 2'-OH (RNA); f = 2'-fluoro

T1: recombinant chymase (expressed by yeast) (Homo sapiens, UniProt P23946)
T1 construct: purchased SIGMA; host or cells: yeast
T1 sequence (P23946 22-247): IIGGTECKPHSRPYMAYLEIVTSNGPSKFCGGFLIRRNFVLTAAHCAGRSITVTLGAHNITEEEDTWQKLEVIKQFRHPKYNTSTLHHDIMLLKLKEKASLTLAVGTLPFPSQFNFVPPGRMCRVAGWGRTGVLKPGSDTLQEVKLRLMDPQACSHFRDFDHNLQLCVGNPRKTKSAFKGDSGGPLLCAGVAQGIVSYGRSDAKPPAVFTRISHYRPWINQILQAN

T2: chymase (recombinant, manufactured by SIGMA) (Homo sapiens, UniProt P23946)
T2 construct: purchased SIGMA; host or cells: yeast
T2 sequence (P23946 22-247): T1 sequence (P23946 22-247)

B1: 4 (nucleic acid)
chain: rGrGrGrAfCrGrGfUrArGrGrArAfUfUfCrGfUfCfCrAfUfUfCfUrAfCrArGrAfUrArGrArGrAfUrArArArGfUrArGrArAfUfUfUrArAfCrArArArAfCrAfUrArGrArArGrArGfCrGrGfCfCrGfC
modifications: aptamer
B2: 14 (nucleic acid)
chain: rGrGrGrAfCrGrGfUrArGrGrArAfUfUfCfUfCrGfUfUfCfCfUrGrAfCrArGfCrAfUfUfUrGrArGrAfUrArGrAfUfUfUrArArAfCrArArAfCrGfCrAfCrAfUrArGrArArGrArGfCrGrGfCfCrGfC
modifications: aptamer
B3: 13 (nucleic acid)
chain: rGrGrGrAfCrGrGfUrArGrGrArAfUfUfCfCrGfCrArAfCfCrAfUfCfCfCrGfUrArAfCfUrAfUrGrGfUfUrArGrAfUrArGrArGfUfUrArArArArAfCfCrAfUrArGrArArGrArGfCrGrGfCfCrGfC
modifications: aptamer

Tests used:
[1] = target: T1, recombinant chymase (expressed by yeast); experiment: Chymase inhibitory activity using angiotensin I as substrate, recombinant chymase; format: biochemical; settings: final 50 μM, chymase 0.2-0.5 nM, 37° C. 90 min, one measurement
Experimental: A second method of evaluation employs a native substrate. A useful native substrate for chymase is angiotensin I. Here, His-Leu, a peptide fragment released upon degradation of angiotensin I, is fluorescently derivatized, and the fluorescence intensity therefrom is quantified.
In the assay, an enzyme reaction is carried out in 50 μL of solution C. First, 0.3-0.75 ng of chymase (recombinant, manufactured by SIGMA; or native, manufactured by Calbiochem) is diluted in solution C to obtain 5 μL chymase solution. Each nucleic acid is prepared in solution C to obtain 25 μL solutions. 5 μL of each chymase dilution and 25 μL of each nucleic acid solution are mixed, and then the mixture is incubated at 37° C. for 5 minutes. […] The angiotensin I solution is added to the mixture of chymase and nucleic acid, and the enzyme reaction is initiated. After the reaction was allowed to proceed at 37° C. for 90 minutes, 25 μL of ice-cooled 30% trichloroacetic acid solution is added to terminate the reaction. The entire mixture is centrifuged at 4° C., 14000 rpm for 10 minutes, and 30 μL of the resulting supernatant is used for the subsequent reaction for fluorescent derivatization.
After 30 μL of the supernatant is added to a 96-well plate (Black, manufactured by Costar), 15 μL of 2% o-phthalaldehyde (manufactured by SIGMA) solution in methanol and 170 μL of 0.3M NaOH solution are mixed in each well, and the plate is allowed to stand at room temperature for 10 minutes. Subsequently, 25 μL of 3M HCl solution is added to terminate the reaction. The plate is set to the microplate reader SpectraMax190 (manufactured by Molecular Devices Corporation), and the fluorescence intensity is determined at an excitation wavelength of 355 nm and a fluorescence wavelength of 460 nm.
For control, samples are treated and analyzed in the same manner in two cases: use of SEQ ID NO: 58 (negative control) and use of chymostatin, a known chymotrypsin-like serine protease inhibitor (positive control). In both cases, fluorescence intensity obtained at 0 minute reaction time serves as a blank determination. Taking the fluorescence intensity detected with the addition of an equal volume of solution C, in place of each nucleic acid, in the chymase enzyme reaction as 100%, the inhibitory rate for each test substance is calculated, and the inhibitor concentration required to cause a 50% inhibition of the enzyme activity (IC50) is determined.
For further assessment of the inhibitory activity of the nucleic acid of the present invention, the enzyme activity of chymase was measured using angiotensin I, which is a native substrate for chymase, according to the following method. Angiotensin I is converted by chymase to angiotensin II, during which a peptide fragment His-Leu is released. Since the peptide His-Leu is fluorescently derivatized by o-phthalaldehyde, its fluorescence intensity can be quantitatively measured.
The total volume of solution for an enzyme reaction in the assay was set to 50 μL, and the reaction was performed in solution C buffer. First, 0.3-0.75 ng of chymase (recombinant, (manufactured by SIGMA) or native (manufactured by Calbiochem)) was diluted with solution C to give 5 μL thereof. Here, the recombinant is chymase expressed by yeast, and the native is chymase purified from human skin mast cell. The nucleic acid was serially diluted with solution C at a concentration of 0.0027-2 μM to give 25 μL thereof. The chymase solution (5 μL) and the nucleic acid solution (25 μL) were mixed, and the mixture was incubated at 37° C. for 5 min. On the other hand, […] angiotensin I (manufactured by PEPTIDE INSTITUTE, INC.) was prepared in solution C to give […] thereof, which was incubated at 37° C. for 5 min. The angiotensin I solution was added to a mixture of chymase and nucleic acid to start an enzyme reaction. The final chymase concentration of the reaction solution was 0.2-0.5 nM, and the final substrate concentration was 50 μM. […]

[2] = target: T2, chymase (recombinant, manufactured by SIGMA); experiment: Surface plasmon resonance (Biacore T100), chymase immobilized on CM5 chip, nucleic acid injected as analyte; format: binding; parameters: key to Binding activity as determined using Biacore: ++: a sequence that binds to chymase significantly more strongly than the negative control 40N; +: a sequence that binds to chymase equivalently compared with the negative control 40N; key to binding activity using Biacore: ++: significant binding to chymase than SEQ ID NO: 58 which is a negative control; +: similar binding level as SEQ ID NO: 58 which is a negative control; settings: for Binding activity as determined using Biacore: Table 4, about 4000 RU chymase immobilized, nucleic acid 0.3 μM, solution C, compared with 40N; for binding activity using Biacore: same manner as Example 4, compared with SEQ ID NO: 58
Experimental: In another method, chymase is first immobilized onto a sensor chip, the amount immobilized being about 4000 RU. 20 μL of an aptamer solution for analyte, prepared at 0.01 μg/μL, is injected, and the binding of the aptamer to chymase is detected. An RNA containing a random nucleotide sequence of 30 or 40 nucleotides is used as a negative control.
Whether these nucleic acids bind to chymase was determined by the surface plasmon resonance method. Measurements were taken using Biacore T100 (manufactured by GE Healthcare) as described below. About 4000 RU of chymase (recombinant, manufactured by SIGMA) was immobilized on the sensor chip surface of a CM5 chip, using an amine coupling kit. 20 μL of each nucleic acid, prepared at 0.3 μM, as an analyte was injected at a flow rate of 20 μL/min. Solution C was used as a running buffer. The method of evaluation used was the same as Example 1.
All nucleic acids of SEQ ID NO: 58-68 were prepared by chemical synthesis. Whether these nucleic acids are bound to chymase was assessed by surface plasmon resonance method in the same manner as in Example 4. The inhibitory activity on chymase was measured in the same manner as in Example 3.
All nucleic acids of SEQ ID NOs: 73-79, 56(8), 80, 56(10), 81, 56(13)-56(14), 83-87 were prepared by chemical synthesis. Whether these nucleic acids are bound to chymase was assessed by surface plasmon resonance method in the same manner as in Example 4.
All nucleic acids of SEQ ID NO: 88-120, 121, 69, 122, 123, 70-72, 124-131 were prepared by chemical synthesis. Whether these nucleic acids are bound to chymase was assessed by surface plasmon resonance method in the same manner as in Example 4.

Row | Molecule | IC50 [1] [nM] | other results
1 | GGGU(F)U(F)GAAGAU(F)AU(F)U(F)AAAGAAC(F)C(F)C(F) (GGGUUGAAGAUAUUAAAGAACCC; 2'-fluoro at CU, RNA at AG, backbone not given here) [SEQ ID NO: 58] | > 1000 | –
2 | 56 (GGGUUAGAUAGAGUUAAAAACCC; 2'-fluoro at CU, RNA at AG, backbone not given here) [compound 56] | 235 | Binding activity as determined using Biacore [2]: ++; binding activity using Biacore ([2]; Table 6): ++
3 | 65 (rGrGfCrArGrAfUrArGrArGfUfUrArArArGfCfC) [compound 65] | 274 | binding activity using Biacore ([2]; Table 5): ++
4 | 53 (GGGUAACUAUGGUUAGAUAGAGUUAAAAACCAUAGAAGACCC; 2'-fluoro at CU, RNA at AG, backbone not given here) [compound 53] | 446 | Binding activity as determined using Biacore [2]: ++
5 | 72 (GGGTTAGAUAGAGTUAAAAACCC; chemistry not given here) [compound 72] | 65 | binding activity using Biacore ([2]; Table 7): ++
6 | CC(C)C[C@H](NC(=O)[C@@H](NC(=O)N[C@@H](Cc1ccccc1)C(=O)O)[C@@H]1CCN=C(N)N1)C(=O)N[C@H](C=O)Cc1ccccc1 [chymostatin, reference compound] | 450 to 600 | –
7 | 54 (UAACUAUGGUUAGAUAGAGUUAAAAACCAUAGAAGA; 2'-fluoro at CU, RNA at AG, backbone not given here) [compound 54] | 397 | Binding activity as determined using Biacore [2]: ++
8 | 71 (GGGUUAGAUAGAGTUAAAAACCC; chemistry not given here) [compound 71] | 161 | binding activity using Biacore ([2]; Table 7): ++
9 | 58 (GGGUUGAAGAUAUUAAAGAACCC; 2'-fluoro at CU, RNA at AG, backbone not given here) [compound 58] | – | binding activity using Biacore ([2]; Table 5): +
10 | 70 (GGGTTAGAUAGAGUUAAAAACCC; chemistry not given here) [compound 70] | 239 | binding activity using Biacore ([2]; Table 7): ++
11 | 55 (CUAUGGUUAGAUAGAGUUAAAAACCAUAG; 2'-fluoro at CU, RNA at AG, backbone not given here) [compound 55] | 354 | Binding activity as determined using Biacore [2]: ++
12 | B1 | 3 | –
13 | B2 | 22 | –
14 | B3 | 41 | –
